Source: patent US9561231B2 (AbbVie Inc., priority 2012, dated 2017)
Where two headings read alike, the source gives them in different places.

Assays:
[1] = target: T1, first (BD1: amino acids K57-E168) bromodomain of BRD4 (Homo sapiens, UniProt O60885); experiment: TR-FRET bromodomain binding assay, BRD4 BD1; conditions: Ki calculated from IC50, probe Kd and probe concentration, read-out: TR-FRET Binding Ki: BRD4 (BDI_K57-E168)
T1 construct: His-tagged first (BD1: amino acids K57-E168)
Description: (§1) A time-resolved fluorescence resonance energy transfer (TR-FRET) assay was used to determine the affinities of compounds of the Examples listed in Table 1 for each bromodomain of BRD4. His-tagged first (BD1: amino acids K57-E168) and second (BD2: amino acids E352-E168) bromodomains of BRD4 were expressed and purified. An Alexa647-labeled BET-inhibitor was used as the fluorescent probe in the assay.
(§2) Compound dilution series were prepared in DMSO via an approximately 3-fold serial dilution from one of the following:
(§3) or 5-fold serial dilution from one of the following:
(§4) Assay method A: 2.5 mM-800 nM
(§5) For Assay methods A, C, D, and F: Compounds were then diluted 6:100 in assay buffer (20 mM Sodium Phosphate, pH 6.0, 50 mM NaCl, 1 mM Ethylenediaminetetraacetic acid, 0.01% Triton X-100, 1 mM DL-Dithiothreitol) to yield 3× working solutions. […] of this solution were added to the assay plate to reach a final volume of 18 μL.
(§6) TR-FRET data were normalized to the means of 24 no-compound controls (“high”) and 8 controls containing 1 μM un-labeled probe (“low”). Percent inhibition was plotted as a function of compound concentration and the data were fit with the 4 parameter logistic equation to obtain IC50s. Inhibition constants (Ki) were calculated from the IC50s, probe Kd and probe concentration. Typical Z′ values were between 0.65 and 0.75.

[2] = target: T2, second (BD2: amino acids E352-E168) bromodomain of BRD4 (Homo sapiens, UniProt O60885); experiment: TR-FRET bromodomain binding assay, BRD4 BD2; conditions: Ki calculated from IC50, probe Kd and probe concentration, read-out: TR-FRET Binding Ki: BRD4 (BDII_E352-M457)
T2 construct: protocol
Description: as §1, §2, §3, §4, §5, §6

[3] = TR-FRET assay protocol (A-G, compound concentration range)
[4] = TR-FRET assay protocol (D, E or G) per compound

| SMILES | Ki [1, 3] | Ki [2, 3] | Ki [1, 4] | Ki [2, 4] |
| --- | --- | --- | --- | --- |
| CCN(CC)C(=O)c1cccc(-c2cc(=O)n(C)nc2-c2ccccc2Oc2ccccc2)c1 [Example 160, N,N-diethyl-3-[1-methyl-6-oxo-3-(2-phenoxyphenyl)-1,6-dihydropyridazin-4-yl]benzamide] | 8540 nM | 10200 nM | – | – |
| C=CCC(O)c1ccc(-c2cc(=O)n(C)nc2-c2ccccc2Oc2ccccc2)cc1 (stereo not shown) [Example 77, 5-[4-(1-hydroxybut-3-en-1-yl)phenyl]-2-methyl-6-(2-phenoxyphenyl)pyridazin-3(2H)-one] | 511 nM | 380 nM | – | – |
| CCOc1cc(=O)n(C)cc1-c1cc(NS(=O)(=O)CC)ccc1OC1Cc2ccccc2C1 [Example 394, N-[4-(2,3-dihydro-1H-inden-2-yloxy)-3-(4-ethoxy-1-methyl-6-oxo-1,6-dihydropyridin-3-yl)phenyl]ethanesulfonamide] | – | – | 272 nM | 516 nM |
| COc1cc(=O)n(C)nc1-c1ccccc1Oc1ccc(C#N)cc1 [Example 32, 4-[2-(4-methoxy-1-methyl-6-oxo-1,6-dihydropyridazin-3-yl)phenoxy]benzonitrile] | 5320 nM | 12200 nM | – | – |
| COc1cc(=O)n(C)nc1-c1ccccc1OCCC1CCCCC1 [Example 42, 6-[2-(2-cyclohexylethoxy)phenyl]-5-methoxy-2-methylpyridazin-3(2H)-one] | > 12600 nM | > 22200 nM | – | – |
| Cn1nc(-c2ccccc2Oc2ccccc2)c(-c2ccc3c(ccn3C)c2)cc1=O [Example 208, 2-methyl-5-(1-methyl-1H-indol-5-yl)-6-(2-phenoxyphenyl)pyridazin-3(2H)-one] | 901 nM | 1510 nM | – | – |
| CCOc1cc(=O)n(C)cc1-c1cc(NC(=O)C2(c3ccccc3)CC2)ccc1Oc1ccc(F)cc1F [Example 299, N-[4-(2,4-difluorophenoxy)-3-(4-ethoxy-1-methyl-6-oxo-1,6-dihydropyridin-3-yl)phenyl]-1-phenylcyclopropanecarboxamide] | 149 nM | 35.2 nM | – | – |
| CCS(=O)(=O)c1ccc(Oc2ccccc2C#CCO)c(-c2cn(C)c(=O)cc2Cl)c1 [Example 314, 4-chloro-5-{5-(ethylsulfonyl)-2-[2-(3-hydroxyprop-1-yn-1-yl)phenoxy]phenyl}-1-methylpyridin-2(1H)-one] | 642 nM | 229 nM | – | – |
| CC(C)Cn1cc(-c2cc(=O)n(C)nc2-c2ccccc2Oc2ccccc2)cn1 [Example 206, 2-methyl-5-[1-(2-methylpropyl)-1H-pyrazol-4-yl]-6-(2-phenoxyphenyl)pyridazin-3(2H)-one] | 412 nM | 672 nM | – | – |
| CC(C)CCn1cc(-c2cc(=O)n(C)nc2-c2ccccc2Oc2ccccc2)cn1 [Example 129, 2-methyl-5-[1-(3-methylbutyl)-1H-pyrazol-4-yl]-6-(2-phenoxyphenyl)pyridazin-3(2H)-one] | 520 nM | 264 nM | – | – |
| CCOc1cc(=O)n(C)cc1-c1cc(NC(=O)c2ccc(-c3ccccc3)cc2)ccc1Oc1ccc(F)cc1F [Example 304, N-[4-(2,4-difluorophenoxy)-3-(4-ethoxy-1-methyl-6-oxo-1,6-dihydropyridin-3-yl)phenyl]biphenyl-4-carboxamide] | 195 nM | 359 nM | – | – |
| Cn1nc(-c2ccccc2Oc2ccccc2)c(-c2ccc(C(=O)N3CCOCC3)cc2)cc1=O [Example 147, 2-methyl-5-[4-(morpholin-4-ylcarbonyl)phenyl]-6-(2-phenoxyphenyl)pyridazin-3(2H)-one] | 260 nM | 168 nM | – | – |
| COC(=O)c1ccc(-c2cc(=O)n(C)nc2-c2ccccc2Oc2ccccc2)cc1 [Example 102, methyl 4-[1-methyl-6-oxo-3-(2-phenoxyphenyl)-1,6-dihydropyridazin-4-yl]benzoate] | 2600 nM | 960 nM | – | – |
| COCCNC(=O)c1ccc(-c2cc(=O)n(C)nc2-c2ccccc2Oc2ccccc2)cc1 [Example 173, N-(2-methoxyethyl)-4-[1-methyl-6-oxo-3-(2-phenoxyphenyl)-1,6-dihydropyridazin-4-yl]benzamide] | 805 nM | 545 nM | – | – |
| Cc1cc(-c2cc(=O)n(C)nc2-c2ccccc2Oc2ccccc2)ccn1 [Example 205, 2-methyl-5-(2-methylpyridin-4-yl)-6-(2-phenoxyphenyl)pyridazin-3(2H)-one] | 2830 nM | 2970 nM | – | – |
| CN(C)CCNC(=O)c1cccc(-c2cc(=O)n(C)nc2-c2ccccc2Oc2ccccc2)c1 [Example 186, N-[2-(dimethylamino)ethyl]-3-[1-methyl-6-oxo-3-(2-phenoxyphenyl)-1,6-dihydropyridazin-4-yl]benzamide] | 1320 nM | 854 nM | – | – |

| SMILES | Ki [1, 3] | Ki [2, 3] | Ki [1, 4] | Ki [2, 4] |
| --- | --- | --- | --- | --- |
| CCOc1cncc(-c2cc(=O)n(C)nc2-c2ccccc2Oc2ccccc2)c1 [Example 190, 5-(5-ethoxypyridin-3-yl)-2-methyl-6-(2-phenoxyphenyl)pyridazin-3(2H)-one] | 6560 nM | 2420 nM | – | – |
| CCS(=O)(=O)Nc1ccc(Oc2ccc(F)cc2F)c(-c2cn(C)c(=O)cc2-c2ccccc2O)c1 [Example 331, N-{4-(2,4-difluorophenoxy)-3-[4-(2-hydroxyphenyl)-1-methyl-6-oxo-1,6-dihydropyridin-3-yl]phenyl}ethanesulfonamide] | 164 nM | 551 nM | – | – |
| Cn1nc(-c2ccccc2Oc2ccccc2)c(-c2cc3ccccc3n2C)cc1=O [Example 214, 2-methyl-5-(1-methyl-1H-indol-2-yl)-6-(2-phenoxyphenyl)pyridazin-3(2H)-one] | > 13000 nM | 10400 nM | – | – |
| COc1cc(-c2cc(=O)n(C)nc2-c2ccccc2Oc2ccccc2)ccc1F [Example 199, 5-(4-fluoro-3-methoxyphenyl)-2-methyl-6-(2-phenoxyphenyl)pyridazin-3(2H)-one] | > 13000 nM | 5660 nM | – | – |
| CCS(=O)(=O)c1ccc(OCC2CC2)c(-c2cc(N)c(=O)n(C)c2)c1 [Example 357, 3-amino-5-[2-(cyclopropylmethoxy)-5-(ethylsulfonyl)phenyl]-1-methylpyridin-2(1H)-one] | 159 nM | 1420 nM | – | – |
| Cn1nc(-c2ccccc2Oc2ccccc2)c(-c2ccc3scnc3c2)cc1=O [Example 131, 5-(1,3-benzothiazol-5-yl)-2-methyl-6-(2-phenoxyphenyl)pyridazin-3(2H)-one] | 6390 nM | 410 nM | – | – |
| COc1cc(=O)n(C)nc1-c1ccccc1OCc1ccc2[nH]ncc2c1 [Example 41, 6-[2-(1H-indazol-5-ylmethoxy)phenyl]-5-methoxy-2-methylpyridazin-3(2H)-one] | > 12900 nM | > 20300 nM | – | – |
| Cn1nc(-c2ccccc2-c2ccccc2)ccc1=O [Example 52, 6-(biphenyl-2-yl)-2-methylpyridazin-3(2H)-one] | 9000 nM | 10500 nM | – | – |
| Cn1nc(-c2ccccc2Oc2ccccc2)c(-c2ccc(CC#N)cc2)cc1=O [Example 94, {4-[1-methyl-6-oxo-3-(2-phenoxyphenyl)-1,6-dihydropyridazin-4-yl]phenyl}acetonitrile] | 402 nM | 154 nM | – | – |
| CC(C)Oc1ccc(-c2cc(=O)n(C)nc2-c2ccccc2Oc2ccccc2)cc1F [Example 111, 5-[3-fluoro-4-(propan-2-yloxy)phenyl]-2-methyl-6-(2-phenoxyphenyl)pyridazin-3(2H)-one] | 2470 nM | 1970 nM | – | – |
| COC(=O)Cc1ccc(-c2cc(=O)n(C)nc2-c2ccccc2Oc2ccccc2)cc1 [Example 189, methyl{4-[1-methyl-6-oxo-3-(2-phenoxyphenyl)-1,6-dihydropyridazin-4-yl]phenyl}acetate] | 3140 nM | 1480 nM | – | – |
| COc1cnccc1-c1cc(=O)n(C)nc1-c1ccccc1Oc1ccccc1 [Example 213, 5-(3-methoxypyridin-4-yl)-2-methyl-6-(2-phenoxyphenyl)pyridazin-3(2H)-one] | > 13000 nM | 15200 nM | – | – |
| COc1cc(=O)n(C)nc1-c1ccccc1OCc1ccccn1 [Example 40, 5-methoxy-2-methyl-6-[2-(pyridin-2-ylmethoxy)phenyl]pyridazin-3(2H)-one] | 9480 nM | 20100 nM | – | – |
| Cn1nc(-c2ccccc2OC2CCCC2)ccc1=O [Example 4, 6-[2-(cyclopentyloxy)phenyl]-2-methylpyridazin-3(2H)-one] | 1340 nM | > 4080 nM | – | – |
| CC(C)CNC(=O)c1ccc(-c2cc(=O)n(C)nc2-c2ccccc2Oc2ccccc2)cc1 [Example 170, 4-[1-methyl-6-oxo-3-(2-phenoxyphenyl)-1,6-dihydropyridazin-4-yl]-N-(2-methylpropyl)benzamide] | 1670 nM | 1620 nM | – | – |
| COC(C)c1cccc(-c2cc(=O)n(C)nc2-c2ccccc2Oc2ccccc2)c1 (stereo not shown) [Example 134, 5-[3-(1-methoxyethyl)phenyl]-2-methyl-6-(2-phenoxyphenyl)pyridazin-3(2H)-one] | 4320 nM | 4060 nM | – | – |
